Columns and labels:
HDAC2 = HDAC2 (Homo sapiens, UniProt Q92769); assay: Selective HDAC inhibition, HDAC Fluorogenic assay kit; conditions: final concentration 10 µM; HDAC substrate 3 200 µM; positive control (1% DMSO) set to 100
Description: (§1) For analysis, HDAC substrate 3 was diluted in buffer to a concentration of 200 µM and used in HDAC 1, 2, 3, 6, and 10 assays, HDAC substrate 2A was diluted in buffer to a concentration of 200 µM and used in HDAC 4, 7, 9, and 11 assays, HDAC substrate 2A was diluted in buffer to a concentration of 20 µM and used in HDAC 8 assays. For the HDAC 11 assay, a dedicated buffer included in the kit was used separately, and the same buffer was used for the remaining assays. The compound of the Example was diluted to 1 mM (1% DMSO concentration) using DMSO to obtain a final concentration of 10 µM, and prepared by diluting 1/10 with assay buffer. In a 96-well black round-bottom plate, 5 µL of the diluted compound of the Example, 5 µL of the diluted HDAC substrate, 5 µL of BSA (1 mg/ml), 5 µL of the HDAC enzyme diluted to the appropriate concentration, and 30 µL of assay buffer were added, and the enzyme reaction was performed at 37°C for 30 minutes. […] Afterwards, 50 µL of 2X HDAC developer was added to each well. After reacting for 15 minutes at room temperature, the fluorescence values at excitation wavelengths of 350-380 nm and emission wavelengths of 440-460 nm were measured using a microplate reader (Synergy Neo).

HDAC6 = target: T1, HDAC6 (Homo sapiens, UniProt Q9UBN7); assay: as above; conditions: final concentration 10 µM; HDAC substrate 3 200 µM; positive control (1% DMSO) set to 100
T1 sequence (Q9UBN7 1-1215): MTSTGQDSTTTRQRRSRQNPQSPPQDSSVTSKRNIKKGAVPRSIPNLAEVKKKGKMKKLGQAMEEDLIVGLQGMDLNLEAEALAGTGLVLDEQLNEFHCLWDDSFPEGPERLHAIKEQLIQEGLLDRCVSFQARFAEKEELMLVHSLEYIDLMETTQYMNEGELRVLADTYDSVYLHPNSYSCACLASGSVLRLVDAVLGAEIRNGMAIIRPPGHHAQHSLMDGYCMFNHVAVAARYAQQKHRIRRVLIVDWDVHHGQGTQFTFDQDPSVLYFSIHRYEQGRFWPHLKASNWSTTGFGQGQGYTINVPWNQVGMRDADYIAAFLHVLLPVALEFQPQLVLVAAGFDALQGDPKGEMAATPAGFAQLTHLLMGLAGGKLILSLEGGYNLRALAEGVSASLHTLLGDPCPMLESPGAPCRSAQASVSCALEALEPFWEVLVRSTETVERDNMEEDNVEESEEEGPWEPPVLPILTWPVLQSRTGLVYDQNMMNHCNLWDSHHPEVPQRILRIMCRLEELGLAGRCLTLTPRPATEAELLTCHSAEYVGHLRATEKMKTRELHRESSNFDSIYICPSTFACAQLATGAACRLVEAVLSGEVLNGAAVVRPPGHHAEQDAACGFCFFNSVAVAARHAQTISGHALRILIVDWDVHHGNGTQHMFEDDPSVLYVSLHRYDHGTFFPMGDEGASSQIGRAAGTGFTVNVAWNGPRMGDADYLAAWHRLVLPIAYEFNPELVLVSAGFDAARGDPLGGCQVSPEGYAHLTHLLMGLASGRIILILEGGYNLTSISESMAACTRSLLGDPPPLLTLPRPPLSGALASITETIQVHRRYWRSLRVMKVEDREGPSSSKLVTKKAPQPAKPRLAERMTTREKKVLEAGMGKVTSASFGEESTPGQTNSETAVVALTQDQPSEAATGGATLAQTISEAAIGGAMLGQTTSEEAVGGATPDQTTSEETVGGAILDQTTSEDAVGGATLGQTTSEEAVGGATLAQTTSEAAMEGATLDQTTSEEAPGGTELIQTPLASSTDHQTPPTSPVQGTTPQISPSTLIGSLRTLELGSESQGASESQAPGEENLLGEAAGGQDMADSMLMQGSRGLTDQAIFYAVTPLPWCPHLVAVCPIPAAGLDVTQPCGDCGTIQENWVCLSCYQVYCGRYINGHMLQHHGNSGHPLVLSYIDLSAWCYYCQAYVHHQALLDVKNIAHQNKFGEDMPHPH
Description: as §1

HDAC4 = HDAC4 (Homo sapiens, UniProt P56524); assay: as above; conditions: read-out: HDAC4 enzyme activity (%)
Sequence of HDAC4 (P56524 whole entry): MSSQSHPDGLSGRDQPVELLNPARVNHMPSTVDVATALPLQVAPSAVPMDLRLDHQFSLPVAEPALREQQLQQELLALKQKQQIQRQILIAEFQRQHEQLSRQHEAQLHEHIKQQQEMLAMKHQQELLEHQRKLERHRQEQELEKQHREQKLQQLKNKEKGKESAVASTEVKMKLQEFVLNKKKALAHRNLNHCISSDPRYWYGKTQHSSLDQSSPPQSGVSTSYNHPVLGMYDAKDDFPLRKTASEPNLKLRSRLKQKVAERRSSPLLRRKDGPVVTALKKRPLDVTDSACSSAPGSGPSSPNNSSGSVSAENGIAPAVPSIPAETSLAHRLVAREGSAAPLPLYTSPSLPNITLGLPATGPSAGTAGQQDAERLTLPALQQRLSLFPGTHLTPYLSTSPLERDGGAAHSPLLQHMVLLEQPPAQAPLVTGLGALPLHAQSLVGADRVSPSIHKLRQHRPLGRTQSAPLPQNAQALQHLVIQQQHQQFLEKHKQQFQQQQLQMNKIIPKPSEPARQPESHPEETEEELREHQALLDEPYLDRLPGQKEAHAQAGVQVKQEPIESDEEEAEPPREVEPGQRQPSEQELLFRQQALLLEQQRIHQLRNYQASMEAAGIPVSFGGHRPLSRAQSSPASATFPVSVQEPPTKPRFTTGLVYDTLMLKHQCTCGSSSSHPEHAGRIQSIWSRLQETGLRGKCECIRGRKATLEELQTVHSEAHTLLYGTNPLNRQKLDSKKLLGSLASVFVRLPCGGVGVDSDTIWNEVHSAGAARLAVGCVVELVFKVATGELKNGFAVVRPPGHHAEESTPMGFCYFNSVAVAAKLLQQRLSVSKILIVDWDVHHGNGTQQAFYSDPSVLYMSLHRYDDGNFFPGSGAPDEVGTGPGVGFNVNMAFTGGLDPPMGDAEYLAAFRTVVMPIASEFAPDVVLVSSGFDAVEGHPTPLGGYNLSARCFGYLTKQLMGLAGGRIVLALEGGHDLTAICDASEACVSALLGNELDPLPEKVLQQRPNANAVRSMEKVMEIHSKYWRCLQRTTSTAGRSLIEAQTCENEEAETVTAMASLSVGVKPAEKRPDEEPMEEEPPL
Description: as §1

HDAC8 [1] = target: T2, HDAC8 (Homo sapiens, UniProt Q9BY41); assay: as above; assay type: biochemical; conditions: final concentration 10 µM; HDAC substrate 2A 20 µM; positive control (1% DMSO) set to 100; read-out: HDAC8 enzyme activity (%)
T2 construct: purchased BPS bioscience
T2 sequence (Q9BY41 1-377): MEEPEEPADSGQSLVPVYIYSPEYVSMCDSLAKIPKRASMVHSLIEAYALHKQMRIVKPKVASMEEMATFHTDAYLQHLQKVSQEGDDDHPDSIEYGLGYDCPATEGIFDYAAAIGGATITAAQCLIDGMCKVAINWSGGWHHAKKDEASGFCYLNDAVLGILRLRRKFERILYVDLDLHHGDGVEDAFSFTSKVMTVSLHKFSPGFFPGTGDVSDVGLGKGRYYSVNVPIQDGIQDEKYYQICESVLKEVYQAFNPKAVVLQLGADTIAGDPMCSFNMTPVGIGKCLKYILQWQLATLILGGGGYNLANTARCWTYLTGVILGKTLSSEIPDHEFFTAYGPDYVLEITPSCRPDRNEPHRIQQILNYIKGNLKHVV
Description: as §1

HDAC11 = target: T3, HDAC11 (Homo sapiens, UniProt Q96DB2); assay: as above; conditions: read-out: HDAC11 enzyme activity (%)
T3 sequence (Q96DB2 1-347): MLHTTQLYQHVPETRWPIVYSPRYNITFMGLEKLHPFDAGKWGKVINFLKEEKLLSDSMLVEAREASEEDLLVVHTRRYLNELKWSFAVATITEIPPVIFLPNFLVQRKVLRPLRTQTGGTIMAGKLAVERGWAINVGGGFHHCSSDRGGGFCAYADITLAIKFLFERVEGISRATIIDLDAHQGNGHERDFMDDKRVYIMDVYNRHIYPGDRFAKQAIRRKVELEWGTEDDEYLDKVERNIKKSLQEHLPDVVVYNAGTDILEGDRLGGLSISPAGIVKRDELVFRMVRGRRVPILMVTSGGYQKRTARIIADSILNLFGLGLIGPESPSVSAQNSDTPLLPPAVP
Description: as §1

HDAC8 [2] = target: T2, HDAC8; assay: HDAC8 inhibitory activity analysis (in vitro), RFU analysis, HDAC Fluorogenic assay kit; assay type: biochemical; conditions: compound final concentration 10 µM; HDAC substrate 2A 20 µM; positive control (1% DMSO) set to 100, lower = more inhibition
Description: The compound of the Example was diluted to 1 mM (1% DMSO concentration) using DMSO to obtain a final concentration of 10 µM, and prepared by diluting 1/10 with assay buffer. In a 96-well black round-bottom plate, 5 µL of the diluted compound of the Example, 5 µL of the diluted HDAC substrate 2A, 5 µL of BSA (1 mg/mL), 5 µL of the HDAC8 enzyme diluted to an appropriate concentration, and 30 µL of assay buffer were added, and the enzyme reaction was performed at 37°C for 30 minutes. […] Afterwards, 50 µL of 2X HDAC developer was added to each well. After reacting for 15 minutes at room temperature, the fluorescence values at excitation wavelengths of 350-380 nm and emission wavelengths of 440-460 nm were measured using a microplate reader (Synergy Neo).

HDAC9 = HDAC9 (Homo sapiens, UniProt Q9UKV0); assay: Selective HDAC inhibition, HDAC Fluorogenic assay kit; conditions: read-out: HDAC9 enzyme activity (%)
Sequence of HDAC9 (Q9UKV0 whole entry): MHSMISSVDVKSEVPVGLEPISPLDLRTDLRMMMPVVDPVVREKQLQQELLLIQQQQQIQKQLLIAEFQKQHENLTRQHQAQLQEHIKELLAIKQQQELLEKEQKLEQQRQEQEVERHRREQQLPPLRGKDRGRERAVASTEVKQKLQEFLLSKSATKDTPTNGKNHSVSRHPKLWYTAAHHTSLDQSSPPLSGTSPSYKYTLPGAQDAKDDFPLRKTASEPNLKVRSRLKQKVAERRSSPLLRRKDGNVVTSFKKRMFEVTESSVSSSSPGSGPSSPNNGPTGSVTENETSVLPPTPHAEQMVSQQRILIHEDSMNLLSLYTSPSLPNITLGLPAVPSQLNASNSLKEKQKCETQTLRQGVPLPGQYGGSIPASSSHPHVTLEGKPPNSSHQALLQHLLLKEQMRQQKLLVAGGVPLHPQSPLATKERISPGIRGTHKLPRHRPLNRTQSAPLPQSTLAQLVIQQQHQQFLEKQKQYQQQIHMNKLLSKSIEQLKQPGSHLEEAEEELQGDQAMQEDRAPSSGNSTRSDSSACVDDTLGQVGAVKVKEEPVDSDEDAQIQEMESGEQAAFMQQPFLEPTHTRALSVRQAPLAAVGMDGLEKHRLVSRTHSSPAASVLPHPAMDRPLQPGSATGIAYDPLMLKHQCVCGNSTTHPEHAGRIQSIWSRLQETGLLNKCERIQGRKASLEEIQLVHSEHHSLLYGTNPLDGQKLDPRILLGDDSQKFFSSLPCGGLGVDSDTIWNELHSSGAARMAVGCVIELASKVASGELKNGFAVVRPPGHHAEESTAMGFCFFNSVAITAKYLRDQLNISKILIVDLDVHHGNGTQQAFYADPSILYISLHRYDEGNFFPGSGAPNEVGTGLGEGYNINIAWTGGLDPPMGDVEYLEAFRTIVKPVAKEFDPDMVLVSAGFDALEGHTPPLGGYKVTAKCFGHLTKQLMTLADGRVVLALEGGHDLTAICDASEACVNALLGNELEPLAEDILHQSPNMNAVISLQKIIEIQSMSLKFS
Description: as §1

HDAC1 = HDAC1 (Homo sapiens, UniProt Q13547); assay: as above; conditions: final concentration 10 µM; HDAC substrate 3 200 µM; positive control (1% DMSO) set to 100
Sequence of HDAC1 (Q13547 whole entry): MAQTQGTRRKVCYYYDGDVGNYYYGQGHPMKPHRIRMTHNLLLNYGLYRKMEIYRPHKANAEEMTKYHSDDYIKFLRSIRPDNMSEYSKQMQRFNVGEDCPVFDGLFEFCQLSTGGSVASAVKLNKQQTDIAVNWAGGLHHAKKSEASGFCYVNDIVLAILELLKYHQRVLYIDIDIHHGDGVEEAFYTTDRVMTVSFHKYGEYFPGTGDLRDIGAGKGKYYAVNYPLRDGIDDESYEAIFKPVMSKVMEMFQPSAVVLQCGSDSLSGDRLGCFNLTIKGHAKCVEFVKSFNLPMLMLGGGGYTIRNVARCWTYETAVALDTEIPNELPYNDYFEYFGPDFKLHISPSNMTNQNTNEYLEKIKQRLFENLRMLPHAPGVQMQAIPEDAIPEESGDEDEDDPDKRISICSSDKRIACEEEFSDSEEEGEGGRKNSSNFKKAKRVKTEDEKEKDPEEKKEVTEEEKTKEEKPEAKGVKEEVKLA
Description: as §1

HDAC10 = target: T4, HDAC10 (Homo sapiens, UniProt Q969S8); assay: as above; conditions: final concentration 10 µM; HDAC substrate 3 200 µM; positive control (1% DMSO) set to 100
T4 sequence (Q969S8 1-669): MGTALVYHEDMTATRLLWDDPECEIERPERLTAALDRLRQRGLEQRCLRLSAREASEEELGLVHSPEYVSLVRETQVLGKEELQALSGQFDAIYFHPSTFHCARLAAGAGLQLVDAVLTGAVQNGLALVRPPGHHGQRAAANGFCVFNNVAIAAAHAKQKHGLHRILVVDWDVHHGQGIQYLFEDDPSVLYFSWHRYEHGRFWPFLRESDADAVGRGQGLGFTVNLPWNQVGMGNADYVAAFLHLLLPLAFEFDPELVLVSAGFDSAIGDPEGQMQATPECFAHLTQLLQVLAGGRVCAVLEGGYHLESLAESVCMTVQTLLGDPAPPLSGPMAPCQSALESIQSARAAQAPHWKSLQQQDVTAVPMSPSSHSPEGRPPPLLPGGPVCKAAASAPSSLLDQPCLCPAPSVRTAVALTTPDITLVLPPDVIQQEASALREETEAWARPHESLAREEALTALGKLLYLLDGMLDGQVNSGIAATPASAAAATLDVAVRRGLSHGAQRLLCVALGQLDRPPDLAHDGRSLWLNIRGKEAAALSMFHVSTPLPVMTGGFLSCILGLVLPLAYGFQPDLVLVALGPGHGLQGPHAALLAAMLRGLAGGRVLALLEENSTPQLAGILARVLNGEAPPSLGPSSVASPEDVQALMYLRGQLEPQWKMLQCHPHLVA
Description: as §1

Sequence of HDAC2 (Q92769 whole entry): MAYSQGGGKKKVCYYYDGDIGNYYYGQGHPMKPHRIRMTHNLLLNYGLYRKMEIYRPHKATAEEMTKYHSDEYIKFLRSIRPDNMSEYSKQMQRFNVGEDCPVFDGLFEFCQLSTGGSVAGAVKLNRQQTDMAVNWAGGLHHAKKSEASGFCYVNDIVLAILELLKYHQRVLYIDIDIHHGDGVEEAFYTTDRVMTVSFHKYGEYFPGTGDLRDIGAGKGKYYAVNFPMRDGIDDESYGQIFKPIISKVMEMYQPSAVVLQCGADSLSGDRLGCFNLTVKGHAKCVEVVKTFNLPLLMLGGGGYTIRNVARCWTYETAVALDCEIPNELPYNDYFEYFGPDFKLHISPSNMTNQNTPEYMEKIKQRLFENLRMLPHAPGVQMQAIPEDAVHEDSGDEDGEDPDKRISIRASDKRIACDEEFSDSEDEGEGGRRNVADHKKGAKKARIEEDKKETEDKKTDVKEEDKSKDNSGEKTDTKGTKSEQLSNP

HDAC2 enzyme activity (%) (HDAC2): 0.70%
HDAC6 enzyme activity (%) (HDAC6): 1.11%
remaining activity at 10 µM (HDAC4): 18.8%
remaining activity at 10 µM (HDAC8 [1]): 11.1%
remaining activity at 10 µM (HDAC11): 59.1%
RFU (%) (HDAC8 [2]): 13.83%
remaining activity at 10 µM (HDAC9): 21.5%
HDAC1 enzyme activity (%) (HDAC1): 1.22%
HDAC10 enzyme activity (%) (HDAC10): 1.21%
Compound: CC(/C=C/C(=O)NO)=C\[C@@H](C)C(=O)c1ccc(N(C)C)cc1 [TSA, Trichostatin A, reference compound]
